From patent US20120065165A1, “COMPOSITIONS AND METHODS OF TREATING ENDOTHELIAL DISORDERS” (ARGINETIX, INC, priority 2008, published 2012)

Assays:
rat aortic tissues = test: cGMP levels in aortic rings of old rats incubated with sildenafil and ABH (cGMP EIA); format: cell-based; conditions: sildenafil 0 nM
Protocol: The source of tissue was old (22 to 24 months) male Fischer 344 rats purchased from National Institute for Aging (NIA). The rats were anesthetized in an isoflurane chamber and euthanized. The entire length of the aorta (thoracic, arch, abdominal) were dissected out and cleaned free of connective tissue. These aorta were then sectioned into ˜3 mm long rings. Samples were collected from 2 rats and pooled. […] Rings were incubated in varying concentrations of sildenafil (0-2000 nM) and ABH (0-500 nM) prepared in 200 μL Krebs buffer for 10 min at 37° C. The rings were then snap frozen in liquid nitrogen following treatment. The next day, samples were homogenized in 200 μL 6% TCA buffer (prepared by adding TCA to DI water) at 4° C. for extraction of cyclic nucleotides. The samples were then centrifuged at 12,000 rpm for 5 min at 4° C. Protein pellets were re-dissolved in PBS to determine protein concentration, and supernatant was reserved for cGMP detection. […] ABH (MW 211.45): A stock solution of ABH at a concentration of 100 mM was prepared by dissolving 21.1 mg of ABH into 1 ml Krebs solution. This was used to prepare 5 ml of a 1 mM stock. 200 μL of the 1 mM solution were dispensed into column 12 of a 96-well plate. Six 2× dilutions were prepared in the plate. 200 μL Krebs were dispensed in column 5 to get a concentration range of 0-1000 nM (2× of final concentration). Sildenafil (MW 474.5): A stock solution of sildenafil at a concentartion of 100 mM was prepared by dissolving 47.4 mg of sildenafil into 1 ml Krebs solution; 5 ml of 2 mM stock was prepared from this. Row A received 200 μL of Krebs buffer (0 mM sildenafil), mixed well, and adjusted to a final volume of 200 μL. Next, 200 μL of the 2 mM sildenafil stock was dispensed into row H of the 96 well plate already containing the ABH dilutions ([…]). Six 2× dilutions were prepared from this to get the final concentration ranges for the two drugs. cGMP levels were determined with a cGMP kit (Amersham cGMP Enzyme immunoassay Biotrak (EIA) System Cat #RPN226) and run in accordance with the manufacture's recommendations. The assay uses a competitive fluorescent immunoassay format to measure levels of cGMP. It combines the use of a peroxidase-labelled cGMP conjugate, a specific antiserum which can be immobilized on to pre-coated microplates, and a one-pot stabilized substrate solution. […] In the absence of cGMP most of the HRP conjugate is bound to the antibody and yields a high fluorescence. Increasing concentrations of cGMP competitively decreases the binding of the HRP conjugate, decreasing the measured fluorescence (HRP activity). […] The plate was then incubated for 2 hrs at room temperature with shaking after which it is washed and the fluorescent substrate is added. The plate was incubated for an additional 10 min and then read on a Molecular Devices Gemini EM plate reader set at Ex 530 nm, Em 590 nm (endpoint mode). The signal is reported to be stable for up to 24 hrs, but was generally read within 2 hrs. […] These values were calculated based on the resultant ratio of fluorescence reading of sample divided by fluorescense reading with no cGMP (pmols/mg). For each concentration combination of sildenafil and ABH administered to cells, absorbance (OD at 450 nm) was measured. From these values, the absorbance adjusted for non-specific binding (NSB) for each sample (OD-NSB(B)) was determined from the absorbance (B) divided by the absorbance without cGMP (Bo). Using this value and the standard curve for cGMP, the log (fmol) is found and, after adjusting for the quantity of protein, the pmols of cGMP/mg protein is calculated.

diabetic ZDF rats = test: ABH plus PDE5 inhibitor in diabetic ZDF rats: erectile function and vasorelaxation (Example 8); format: in vivo, rat; conditions: ABH alone
Protocol: The effects of ABH and PDE5 inhibitors, singly and in combination, in the ZDF model of type 2 diabetes are tested.
ZLC rats are maintained on a normal diet. […] Ten to twenty minutes prior to each in vivo vasorelaxation experiment, animals will receive a single intravenous dose of the PDE5 inhibitor, sildenafil citrate (Viagra; either 1 or 2 mg/kg iv) or vehicle alone. […] Peak intracavernous pressure, ICP/mean arterial pressure (MAP), and total ICP (area under the erectile curve) are determined in response to intra-cavernous administration of the endothelium-dependent vasodilator ACh, and in response to direct cavernous nerve stimulation. Animals will then be euthanized, and aortas and penile vascular tissues are collected. Biochemical (arginase, NO, eNOS, ROS) and functional (contraction and relaxation in organ baths) indicators of endothelial health are determined in aortic rings and cavernous strips.

eNOS = eNOS activity (L-arginine to L-citrulline) in human diabetic corpus cavernosum extracts; format: biochemical; conditions: 1 mM ABH added to diabetic penile extracts
From the text: In order to study the role of arginase in the development of these defects, corpus cavernosum tissue extracts were obtained from non-diabetic and diabetic men undergoing placement of a penile prosthesis for the management of their severe ED (Bivalacqua, et al., 2001 Biochem. Biophys. Res. Commun. 283: 923-927). […] Constitutive nitric oxide synthase activity (eNOS activity; calcium-dependent conversion of L-arginine to L-citrulline) is […] in human corporal tissue from diabetic patients vs. controls (See FIG. 7C), *P<0.05 when compare to controls; in the presence of the selective arginase inhibitor ABH, eNOS activity in human diabetic corpora caversosa is restored, **P<0.05 when compared to diabetic (Bivalacqua, et al., 2001 Biochem. Biophys. Res. Commun. 283: 923-927).
Diabetic corporal tissue extracts were prepared for the measurement of arginase activity by the production of urea in the presence of labeled arginine (FIG. 7B).

old rat aorta = test: ROS production in aortic rings (DHE fluorescence); format: cell-based; conditions: aged rat aortas
From the text: ABH improves endothelial function by inhibiting arginase and consequently increasing NO production (by increasing L-arginine availability to eNOS) and decreasing levels of ROS (by preventing eNOS uncoupling). […] Aortic rings were dissected and pinned down, endothelial side up, on a silastic coated culture dish, and then exposed to either the NO-sensitive dye DAF, or the O2-sensitive dye DHE. Since the interaction of NO or ROS with its specific dye is cumulative, the rate of production of each species is proportional to the slope of the fluorescence emitted from the dye as measured using epifluorescence microscopy. […] SNP endothelial-independent NO donor was included as a control (Santhanam et al 2007).
This supports the hypothesis that arginase inhibition results in increased vascular NO production. A corollary of this effect is a decrease in ROS production by re-coupling eNOS to NO production. […] This resulted from deranged NOS activity (uncoupled NOS), since ROS levels could be reduced using the NOS-inhibitor nitro-L-arginine methyl ester (FIG. 6C). […] Similar techniques are used to examine whether ABH can restore NO production and decrease ROS production in vascular endothelial cells and corporal tissue from type 2 diabetic rats.

arginase I = biological target: T1, arginase I (Homo sapiens, UniProt P05089); conditions: cited from earlier work
T1 sequence (P05089 1-322): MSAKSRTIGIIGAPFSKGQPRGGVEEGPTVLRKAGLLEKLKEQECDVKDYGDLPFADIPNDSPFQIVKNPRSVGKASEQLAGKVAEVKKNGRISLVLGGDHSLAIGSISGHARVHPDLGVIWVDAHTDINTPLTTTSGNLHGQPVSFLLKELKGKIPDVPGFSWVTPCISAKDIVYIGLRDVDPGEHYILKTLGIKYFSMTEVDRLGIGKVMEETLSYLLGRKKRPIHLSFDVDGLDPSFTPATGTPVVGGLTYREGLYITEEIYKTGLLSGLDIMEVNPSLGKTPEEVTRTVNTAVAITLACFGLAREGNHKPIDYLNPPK

Structure (SMILES): N[C@@H](CCCCB(O)O)C(=O)O [ABH, 2(S)-Amino-6-boronohexanoic acid]
- Theoretical response T(x,y) based on an additive effect (rat aortic tissues; ABH 7.81 nM): 0.34 pmol/mg
- pmols of cGMP/mg protein produced P(x,y) (rat aortic tissues; ABH 7.81 nM): 0.34 pmols/mg
- Theoretical response T(x,y) based on an additive effect (rat aortic tissues; ABH 31.25 nM): 0.90 pmol/mg
- pmols of cGMP/mg protein produced P(x,y) (rat aortic tissues; ABH 31.25 nM): 0.90 pmols/mg
- Theoretical response T(x,y) based on an additive effect (rat aortic tissues; ABH 125 nM): 1.14 pmol/mg
- pmols of cGMP/mg protein produced P(x,y) (rat aortic tissues; ABH 125 nM): 1.14 pmols/mg
- Theoretical response T(x,y) based on an additive effect (rat aortic tissues; ABH 500 nM): 0.16 pmol/mg
- pmols of cGMP/mg protein produced P(x,y) (rat aortic tissues; ABH 500 nM): 0.16 pmols/mg
- erectile function (diabetic ZDF rats): some positive effects
- eNOS activity (eNOS): improved to levels that were comparable to those of control corpus cavernosum
- ROS production (old rat aorta): significantly reduced
- potency as inhibitor of arginase I (arginase I): most potent inhibitor
